Assay results reported in patent publication US6410253B1, “Cholesterol oxidase” (priority 1990, dated 2002).

How the values were obtained:
Type in all cases: biochemical, Brevibacterium sterolicum ATCC 21387
[1] = system: cholesterol oxidase II; assay: Influence of inhibitor on cholesterol oxidase II activity; settings: for Inhibition of the enzyme (in words): cholesterol oxidase II; for Relative Activity (%) of cholesterol oxidase II in the presence of inhibitor: inhibitor 1 mM, activity in the absence of inhibitor = 100
Description: (§1) Relative activity is shown in Table 2, in the presence of an inhibitor at a concentration of 1 mM, when in the absence of the inhibitor, the activities of cholesterol oxidases I and II are regarded as 100.
(§2) The amount of enzyme which catalyzes the reaction of decomposing 1 μmole of cholesterol at 37° C. for one minute in the presence of oxygen is defined as one unit. The titer is determined as follows. While shaking, the enzyme acts on cholesterol and 4-aminoantipyrine and phenol are reacted with the formed hydrogen peroxide in the presence of peroxidase to form quinonimine pigment. Absorption of the thus formed quinonimine pigment in the visible region is measured to determine the amount of hydrogen peroxide generated. Thus, the titer of the enzyme is determined. Hereafter specific activity is defined as activity per 1 mg of protein (unit/mg). Furthermore, an amount of enzyme protein is determined by absorbance at 280 nm (1 mg/ml when absorbance is 1).
In a test tube, there are charged 1.0 ml of 3 mM cholesterol solution (which is prepared by adding 6 ml of 50 mM cholesterol ethanol solution to 94 ml of 1.05% Triton X-100 solution with stirring, heating the mixture for 10 minutes on a water bath, cooling the mixture in water, adding distilled water to the mixture until the total volume is 100 ml; and is not allowed to be used 30 minutes or longer after preparation) , 0.3 ml of 50 mM sodium bilate solution, 0.3 ml of 0.5 mM potassium-sodium phosphate buffer (pH 6.6), 0.5 ml of 42 mM phenol, 0.5 ml of 2.4 mM 4-aminoantipyrine and 0.2 ml of 115 units/ml horseradish-derived peroxidase. The mixture is agitated. After maintaining at 37° C. for 3 minutes, 0.2 ml of an enzyme solution is added to the mixture. While shaking, the reaction is carried out at 37° C. for 5 to 10 minutes. Then, absorbance is measured at 500 nm (OD 500 nm)

[2] = biological target: T1, cholesterol oxidase I (Brevibacterium sterolicum, UniProt P22637); assay: Influence of inhibitor on cholesterol oxidase I activity; settings: inhibitor 1 mM; activity in the absence of inhibitor = 100
Description: as §1
as §2, with “1). […]” for “1).”

[3] = biological target: T1, cholesterol oxidase I; assay: Substrate specificity of cholesterol oxidase I (relative activity on sterol substrates); settings: cholesterol = 100
Description: as §2, with “(unit/mg).” for “(unit/mg). Furthermore, an amount of enzyme protein is determined by absorbance at 280 nm (1 mg/ml when absorbance is 1).”
(§3) The enzyme activity is determined by reacting hydrogen peroxide generated by the enzyme with 4-aminoantipyrine and phenol in the presence of peroxidase and quantitatively determining the formed quinonimine pigment. The reaction is shown by the following equations (1) and (2). [drawing 3]
(§4) The mixture is agitated. After maintaining at 37° C. for 3 minutes, 0.2 ml of an enzyme solution is added to the mixture. While shaking, the reaction is carried out at 37° C. for 5 to 10 minutes. Then, absorbance is measured at 500 nm (OD 500 nm)

[4] = system: cholesterol oxidase II; assay: Substrate specificity of cholesterol oxidase II (relative activity on sterol substrates); settings: for Relative Activity (%) of cholesterol oxidase II on substrate: cholesterol = 100; for Substrate specificity (acts / does not act on): cholesterol oxidase II
Description: as §2, with “(unit/mg).” for “(unit/mg). Furthermore, an amount of enzyme protein is determined by absorbance at 280 nm (1 mg/ml when absorbance is 1).”
as §3, §4

T1 sequence (P22637 46-552): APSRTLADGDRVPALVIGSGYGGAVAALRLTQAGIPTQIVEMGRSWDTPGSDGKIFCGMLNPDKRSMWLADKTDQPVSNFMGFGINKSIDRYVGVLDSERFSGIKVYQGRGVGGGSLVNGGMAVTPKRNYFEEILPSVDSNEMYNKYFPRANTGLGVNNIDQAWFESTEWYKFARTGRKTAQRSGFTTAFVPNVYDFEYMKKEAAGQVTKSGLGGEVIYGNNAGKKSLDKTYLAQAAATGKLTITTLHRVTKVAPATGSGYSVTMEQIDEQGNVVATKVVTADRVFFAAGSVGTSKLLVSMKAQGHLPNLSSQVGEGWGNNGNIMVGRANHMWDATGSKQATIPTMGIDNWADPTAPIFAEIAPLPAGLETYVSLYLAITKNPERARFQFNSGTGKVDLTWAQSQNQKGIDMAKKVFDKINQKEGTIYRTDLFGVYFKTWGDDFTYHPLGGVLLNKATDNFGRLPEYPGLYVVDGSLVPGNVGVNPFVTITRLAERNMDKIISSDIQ

SMILES	Inhibition of the enzyme (in words) [1]	Relative Activity (%) of cholesterol oxidase II in the presence of inhibitor [1] [%]	Relative Activity (%) of cholesterol oxidase I in the presence of inhibitor [2] [%]	Relative Activity (%) of cholesterol oxidase I on substrate [3] [%]	Relative Activity (%) of cholesterol oxidase II on substrate [4] [%]	Substrate specificity (acts / does not act on) [4]
O=[N+]([O-])[O-].[Ag+] [AgNO3, silver nitrate]	inhibited	1.0	0			
CC(C)=CCC[C@@H](C)[C@H]1CC[C@@]2(C)C3=C(CC[C@]12C)[C@@]1(C)CC[C@H](O)C(C)(C)[C@@H]1CC3 [Lanosterol]				0	0	does not act on
C=C1CC[C@H](O)C/C1=C/C=C1\CCC[C@]2(C)[C@@H]([C@H](C)CCCC(C)C)CC[C@@H]12 [Vitamin D3]				0	0	does not act on
O=S(=O)(O)c1cc[c]([Hg][Cl])cc1 [p-Chloromercury benzenesulfonate]	inhibited	87.0	80.0			
Oc1cccc2cccnc12 [o-Hydroxyquinoline]	inhibited	91.3				
C[C@]12CC[C@H](O)CC1=CC[C@@H]1[C@@H]2CC[C@]2(C)C(=O)CC[C@@H]12 [Dehydroisoandrosterone]				41.4	13.0	
C[C@]12CC[C@@H]3c4ccc(O)cc4CC[C@H]3[C@@H]1CC[C@@H]2O [Estradiol]				0		
CC[C@H](CC[C@@H](C)[C@H]1CC[C@H]2[C@@H]3CC=C4C[C@@H](O)CC[C@]4(C)[C@H]3CC[C@]12C)C(C)C [β-Sitosterol]				19.7	82.0	
CC(=O)[C@H]1CC[C@H]2[C@@H]3CC=C4C[C@@H](O)CC[C@]4(C)[C@H]3CC[C@]12C [Pregnenolone]				22.4	32.9	
CC[C@H](/C=C/[C@@H](C)[C@H]1CC[C@H]2[C@@H]3CC=C4C[C@@H](O)CC[C@]4(C)[C@H]3CC[C@]12C)C(C)C [Stigmasterol]				10.0	64.4	
CCCCC/C=C\C/C=C\CCCCCCCC(=O)O[C@H]1CC[C@@]2(C)C(=CC[C@H]3[C@@H]4CC[C@H]([C@H](C)CCCC(C)C)[C@@]4(C)CC[C@@H]32)C1 [Cholesterol linoleate]				0	0	does not act on
C[C@]12CC[C@@H](O)C[C@@H]1CC[C@@H]1[C@@H]2CC[C@]2(C)C(=O)CC[C@@H]12 [Androsterone]				0	0	does not act on
CC(C)CCC[C@@H](C)[C@H]1CC[C@H]2[C@@H]3CC=C4C[C@@H](O)CC[C@]4(C)[C@H]3CC[C@]12C [Cholesterol, 5-cholesten-3-β-ol]				100	100	
